According to patent US20250206727A1, “HETEROCYCLIC SUBSTITUTED AROMATIC COMPOUND, PREPARATION METHOD THEREFOR, HERBICIDAL COMPOSITION AND APPLICATION” (QINGDAO KINGAGROOT CHEMICAL COMPOUND CO., LTD., priority 2022, published 2025):

Assays:
Assay in all cases: Post-emergence test on weeds (greenhouse, spray at 2-3 leaf stage)
Type in all cases: in vivo
Set-up in all cases: key: Level 10: completely dead; Level 9: growth control rate greater than or equal to 90% and less than 100%; Level 8: growth control rate greater than or equal to 80% and less than 90%; Level 7: growth control rate greater than or equal to 70% and less than 80%; Level 6: growth control rate greater than or equal to 60% and less than 70%; Level 5: growth control rate greater than or equal to 50% and less than 60%; Level 4: growth control rate greater than or equal to 40% and less than 50%; Level 3: growth control rate greater than or equal to 30% and less than 40%; Level 2: growth control rate greater than or equal to 20% and less than 30%; Level 1: growth control rate less than 20%; Level 0: no effect
Conditions in all cases: 60 g a.i./ha, 3 weeks after application
[1] = system: Abutilon theophrasti
Excerpt: (§1) The activity level criteria for plant damage (i.e., growth control rate) are as follows: • Level 10: completely dead; • Level 9: growth control rate greater than or equal to 90% and less than 100%; • Level 8: growth control rate greater than or equal to 80% and less than 90%; • Level 7: growth control rate greater than or equal to 70% and less than 80%; • Level 6: growth control rate greater than or equal to 60% and less than 70%; • Level 5: growth control rate greater than or equal to 50% and less than 60%; • Level 4: growth control rate greater than or equal to 40% and less than 50%; • Level 3: growth control rate greater than or equal to 30% and less than 40%; • Level 2: growth control rate greater than or equal to 20% and less than 30%; • Level 1: growth control rate less than 20%; • Level 0: no effect.
(§2) The above growth control rates are fresh weight control rates.
(§3) Monocotyledonous and dicotyledonous weed seeds (Descurainia sophia, Capsella bursa-pastoris, Abutilon theophrasti, Galium spurium, Stellaria media, Lithospermum arvense, Rorippa indica, Alopecurus aequalis, Alopecurus japonicus, Eleusine indica, Beckmannia syzigachne, Sclerochloa dura, Erigeron canadensis, Phleum paniculatum, Veronica polita, Bromus japonicus, Aegilops tauschii, Phalaris arundinacea, Amaranthus retrofexus, Chenopodium, Commelina communis, Cichorium endivia, Convolvulus arvensis, Cirsium arvense, Solanum nigrum, Acalypha australis, Digitaria sanguinalis, Echinochloa crus-galli, Setaria viridis, Setaa pumila, Lepochloa chinensis, Monochona vaginalis, Sagitta trifolia, Schoenoplectiella juncoides, Cypenus rotundus, Cyperus ira, Cyperus difformis, Fimbristylis, Portulaca oleracea, Xanthium sibiricum, Ipomoea nil, Eschenbachia japonica, etc.) and major crop seeds (wheat, maize, paddy rice, soybean, cotton, oilseed rape, millet, sorghum, potato, sesame, castor plant, etc.) were placed in plastic pots filled with soil and then covered with 0.5-2 cm of soil to allow them to grow in a favorable greenhouse environment. Two weeks after sowing, the test plants were treated at the stage of 2-3 leaves. The test compounds of the present invention were individually dissolved with acetone, then added with Tween® 80, with 1.5 L/ha of methyl oleate emulsifiable concentrate as a synergist, diluted into solutions of certain concentrations using certain amount of water, and sprayed to the plants using a spray tower. After drug application, the experimental results on weeds were collected after 3 weeks of cultivation in a greenhouse. The compounds were applied at 500, 250, […], 15, and 7.5 g a.i./ha in triplicate, and the results were averaged.

[2] = system: Amaranthus retroflexus
Excerpt: as §1, §2, §3

[3] = system: Digitaria sanguinalis
Excerpt: as §1, §2, §3

[4] = system: Echinochloa crus-galli
Excerpt: as §1, §2, §3

[5] = system: Setaria viridis
Excerpt: as §1, §2, §3

[6] = system: Veronica polita
Excerpt: as §1, §2, §3

CCC1(C(=O)OC)ON=C(c2cc(-c3ncc(Cl)cc3F)c(F)cc2Cl)O1 (stereo not drawn) [Compound 16]
10: activity level (fresh weight growth control rate), Abutilon theophrasti [1] | activity level (fresh weight growth control rate), Amaranthus retroflexus [2] | activity level (fresh weight growth control rate), Digitaria sanguinalis [3] | activity level (fresh weight growth control rate), Echinochloa crus-galli [4] | activity level (fresh weight growth control rate), Setaria viridis [5] | activity level (fresh weight growth control rate), Veronica polita [6]

CCC1(C(=O)OC)ON=C(c2cc(-c3ncc(C(F)(F)F)cc3Cl)c(F)cc2Cl)O1 (stereo not drawn) [Compound 17]
10: activity level (fresh weight growth control rate), Abutilon theophrasti [1] | activity level (fresh weight growth control rate), Amaranthus retroflexus [2] | activity level (fresh weight growth control rate), Digitaria sanguinalis [3] | activity level (fresh weight growth control rate), Echinochloa crus-galli [4] | activity level (fresh weight growth control rate), Setaria viridis [5] | activity level (fresh weight growth control rate), Veronica polita [6]

CCC1(C(=O)OC)ON=C(c2cc(-c3ncc(C(F)(F)F)cc3F)c(F)cc2Cl)O1 (stereo not drawn) [Compound 19]
10: activity level (fresh weight growth control rate), Abutilon theophrasti [1] | activity level (fresh weight growth control rate), Amaranthus retroflexus [2] | activity level (fresh weight growth control rate), Digitaria sanguinalis [3] | activity level (fresh weight growth control rate), Echinochloa crus-galli [4] | activity level (fresh weight growth control rate), Setaria viridis [5] | activity level (fresh weight growth control rate), Veronica polita [6]

CCCC1(C(=O)OC)ON=C(c2cc(-c3ncc(C(F)(F)F)cc3Cl)c(F)cc2Cl)O1 (stereo not drawn) [Compound 20]
10: activity level (fresh weight growth control rate), Abutilon theophrasti [1] | activity level (fresh weight growth control rate), Amaranthus retroflexus [2] | activity level (fresh weight growth control rate), Digitaria sanguinalis [3] | activity level (fresh weight growth control rate), Echinochloa crus-galli [4] | activity level (fresh weight growth control rate), Setaria viridis [5] | activity level (fresh weight growth control rate), Veronica polita [6]

COC(=O)C1(C2CC2)ON=C(c2cc(-c3ncc(Cl)cc3F)c(F)cc2Cl)O1 (stereo not drawn) [Compound 21]
10: activity level (fresh weight growth control rate), Abutilon theophrasti [1] | activity level (fresh weight growth control rate), Amaranthus retroflexus [2] | activity level (fresh weight growth control rate), Digitaria sanguinalis [3] | activity level (fresh weight growth control rate), Echinochloa crus-galli [4] | activity level (fresh weight growth control rate), Setaria viridis [5] | activity level (fresh weight growth control rate), Veronica polita [6]

CCOC(=O)C1ON=C(c2cc(-c3ccc(C(F)(F)F)cn3)c(F)cc2Cl)O1 (stereo not drawn) [Compound 23]
10: activity level (fresh weight growth control rate), Abutilon theophrasti [1] | activity level (fresh weight growth control rate), Amaranthus retroflexus [2] | activity level (fresh weight growth control rate), Digitaria sanguinalis [3] | activity level (fresh weight growth control rate), Echinochloa crus-galli [4] | activity level (fresh weight growth control rate), Setaria viridis [5] | activity level (fresh weight growth control rate), Veronica polita [6]

CCOC(=O)C1ON=C(c2cc(-c3ncc(C(F)(F)F)cc3Cl)c(F)cc2Br)O1 (stereo not drawn) [Compound 25]
10: activity level (fresh weight growth control rate), Abutilon theophrasti [1] | activity level (fresh weight growth control rate), Amaranthus retroflexus [2] | activity level (fresh weight growth control rate), Digitaria sanguinalis [3] | activity level (fresh weight growth control rate), Echinochloa crus-galli [4] | activity level (fresh weight growth control rate), Setaria viridis [5] | activity level (fresh weight growth control rate), Veronica polita [6]

CCOC(=O)C1ON=C(c2cc(-c3ncc(C(F)(F)F)cc3Cl)c(F)cc2Cl)O1 (stereo not drawn) [Compound 26]
10: activity level (fresh weight growth control rate), Abutilon theophrasti [1] | activity level (fresh weight growth control rate), Amaranthus retroflexus [2] | activity level (fresh weight growth control rate), Digitaria sanguinalis [3] | activity level (fresh weight growth control rate), Echinochloa crus-galli [4] | activity level (fresh weight growth control rate), Setaria viridis [5] | activity level (fresh weight growth control rate), Veronica polita [6]

CCOC(=O)C1(C)ON=C(c2cc(-c3ccc(C(F)(F)F)cn3)c(F)cc2Cl)O1 (stereo not drawn) [Compound 29]
10: activity level (fresh weight growth control rate), Abutilon theophrasti [1] | activity level (fresh weight growth control rate), Amaranthus retroflexus [2] | activity level (fresh weight growth control rate), Digitaria sanguinalis [3] | activity level (fresh weight growth control rate), Echinochloa crus-galli [4] | activity level (fresh weight growth control rate), Setaria viridis [5] | activity level (fresh weight growth control rate), Veronica polita [6]

CCOC(=O)C1(C)ON=C(c2cc(-c3ncc(C(F)(F)F)cc3C)c(F)cc2Cl)O1 (stereo not drawn) [Compound 30]
10: activity level (fresh weight growth control rate), Abutilon theophrasti [1] | activity level (fresh weight growth control rate), Amaranthus retroflexus [2] | activity level (fresh weight growth control rate), Digitaria sanguinalis [3] | activity level (fresh weight growth control rate), Echinochloa crus-galli [4] | activity level (fresh weight growth control rate), Setaria viridis [5] | activity level (fresh weight growth control rate), Veronica polita [6]

CCOC(=O)C1(C)ON=C(c2cc(-c3ncc(Cl)cc3F)c(F)cc2Cl)O1 (stereo not drawn) [Compound 31]
10: activity level (fresh weight growth control rate), Abutilon theophrasti [1] | activity level (fresh weight growth control rate), Amaranthus retroflexus [2] | activity level (fresh weight growth control rate), Digitaria sanguinalis [3] | activity level (fresh weight growth control rate), Echinochloa crus-galli [4] | activity level (fresh weight growth control rate), Setaria viridis [5] | activity level (fresh weight growth control rate), Veronica polita [6]

CCOC(=O)C1(C)ON=C(c2cc(-c3ncc(C)cc3F)c(F)cc2Cl)O1 (stereo not drawn) [Compound 32]
10: activity level (fresh weight growth control rate), Abutilon theophrasti [1] | activity level (fresh weight growth control rate), Amaranthus retroflexus [2] | activity level (fresh weight growth control rate), Digitaria sanguinalis [3] | activity level (fresh weight growth control rate), Echinochloa crus-galli [4] | activity level (fresh weight growth control rate), Setaria viridis [5] | activity level (fresh weight growth control rate), Veronica polita [6]

CCOC(=O)C1(C)ON=C(c2cc(-c3ncc(C(F)(F)F)cc3OC)c(F)cc2Cl)O1 (stereo not drawn) [Compound 33]
10: activity level (fresh weight growth control rate), Abutilon theophrasti [1] | activity level (fresh weight growth control rate), Amaranthus retroflexus [2] | activity level (fresh weight growth control rate), Digitaria sanguinalis [3] | activity level (fresh weight growth control rate), Echinochloa crus-galli [4] | activity level (fresh weight growth control rate), Setaria viridis [5] | activity level (fresh weight growth control rate), Veronica polita [6]
